In patent US20100119502A1, “THERAPY REGIMENS, DOSING REGIMENS AND STABLE MEDICAMENTS FOR THE TREATMENT OF POMPE DISEASE” (AMICUS THERAPEUTICS, INC., priority 2008, published 2010):
“Also recorded” adds a separate entry of the source. Where a name gives a salt, the structure may show the parent alone.

Assays:
rhGAA (Myozyme™) = biological target: T1, rhGAA (Myozyme™) (Homo sapiens, UniProt P10253); test: rhGAA enzyme inactivation in citrate anti-coagulated whole blood at 37° C.; type: in vitro ADME; details: for rhGAA enzyme inactivated: whole blood 37° C., no 1-DNJ-HCl
T1 construct: purchased Genzyme Corp; host or cells: Chinese hamster ovary cell line
Experimental: Aliquots were collected at 0, 2, 4, 8 and 24 hrs and centrifuged to obtain plasma. These plasma samples were then diluted in potassium acetate buffer (pH 4.0) and assayed for GAA activity using the 4-methylumbeliferyl-α-glucose (4-MUG) fluorogenic substrate. The measured GAA activity for individual samples at each time point was normalized to the 0 hr and expressed as % of initial activity. Data from 4 independent experiments were analyzed to obtain the mean (and standard deviation) and plotted versus time to assess the loss of enzyme activity over this time course.
Aliquots were collected at 0, 3 and 6 hrs and centrifuged to obtain plasma. These plasma samples were then diluted in potassium acetate buffer (pH 4.0) and assayed for GAA activity using the 4-methylumbeliferyl-a-glucose (4-MUG) fluorogenic substrate. The measured GAA activity for individual samples at each time point was normalized to the 0 hr and expressed as % of initial activity.
Based on human plasma PK data, these concentrations are readily obtainable in the clinic.

[1] = stored at 2 to 8° C.; cited from earlier work
GAA KO mice [2] = test: In vivo uptake of Myozyme in GAA KO mice with and without oral 1-DNJ-HCl (4-MUG tissue GAA activity)
Description: Enzymatic activity as determined using a 4-MUG fluorogenic substrate assay.

[3] = biological target: T2, recombinant human GAA (Myozyme®, Genzyme Corp.) (Homo sapiens, UniProt P10253); test: SYPRO Orange thermal stability assay of rhGAA; type: binding
T2 construct: purchased Genzyme Corp; host or cells: Chinese hamster ovary cell line
Description: The thermal stability assay utilizes heat to induce protein denaturation, which is monitored using a SYPRO Orange dye that fluoresces upon binding to hydrophobic amino acids (which are not exposed in a folded protein).
FIG. 2B depicts a parallel SYPRO Orange thermal stability experiment to determine if the loss of enzyme activity shown in FIG. 2A, particularly the loss of Myozyme activity at ER pH (7.4), correlates with protein unfolding and denaturation. […]
Denaturation is monitored using a SYPRO Orange dye that fluoresces upon binding to hydrophobic amino acids (which are not exposed in a folded protein).
The thermal stability was performed at pH 7.4 for two formulations, which corresponds to the pH of the ER.
In order to determine if loss of initial enzyme activity is correlated to failure to maintain a proper conformation, a SYPRO Orange thermal stability experiment was performed on the samples above as generally described in Example 1. […] Based on this experiment, the % of GAA folded was estimated and plotted in FIG. 2B. […]

GAA KO mouse = test: GAA enzyme activity in heart and diaphragm of GAA KO mouse (rhGAA uptake); type: in vivo; details: rhGAA co-administered with 1-DNJ-HCl vs ERT monotherapy
Experimental: Heart and Diaphragm tissue homogenates were harvested and rhGAA activity was measured using the fluorogenic substrate (4-MUG).

GAA KO mice [4] = test: Tissue glycogen reduction in GAA KO mice; type: in vivo; details: Myozyme co-administered with 30 mg/kg 1-DNJ-HCl
Experimental: To prevent anaphylaxis, before the third and fourth Myozyme™ injection, diphenhydramine (10 mg/kg intraperitoneally) was administered 10 min before Myozyme™ injection. […] Mice were euthanized 14 days after the last Myozyme™ administration. Glycogen levels in heart, diaphragm, soleus, and quadriceps were then measured. […] Supernatants were heat denatured (99° C. for 10 min) to remove endogenous amyloglucosidase activity. […] The reaction was stopped by inactivation at 100° C. for 10 min. […] Simultaneously, the amount of protein was determined in tissue homogenates using the Micro BCA Protein Assay (Pierce, Rockford, Ill.) following the manufacturer's instructions. The glycogen content of each sample was normalized to protein, and data were finally expressed as micrograms of glycogen per milligram of protein (μg/mg protein).

| Compound | rhGAA enzyme inactivated (rhGAA (Myozyme™); by 4 hrs) | rhGAA enzyme inactivated (rhGAA (Myozyme™); by 8 hrs) | rhGAA enzyme inactivated (rhGAA (Myozyme™); by 24 hrs) | time the product is stable on storage [1] | Myozyme tissue uptake (as a measure of GAA activity) (GAA KO mice [2]; Myozyme 10 mg/kg IV weekly, 7 days post injection) | stability of rhGAA by pH ([3]; Myozyme alone, pH 5.2 vs pH 7.4) | stabilizing rhGAA and preventing enzyme inactivation in whole blood (rhGAA (Myozyme™); high 1-DNJ-HCl concentrations (50 and 100 μM)) | rhGAA activity in whole blood (rhGAA (Myozyme™); rhGAA with 50 μM 1-DNJ-HCl, 37° C., up to 24 hrs) | rhGAA uptake in the heart and diaphragm (GAA activity) (GAA KO mouse) | Myozyme tissue uptake (as a measure of GAA activity) with coadministered 1-DNJ-HCl (GAA KO mice [2]; Myozyme 10 mg/kg IV weekly up to 3 weeks plus 10, 100, 1000 mg/kg oral 1-DNJ-HCl) | tissue glycogen reduction compared to Myozyme alone (GAA KO mice [4]) | GAA folding / denaturation (% of GAA folded) ([3]; 37° C. over 24 hours, Myozyme 0.9 μM, pH 7.4, with or without 100 μM 1-DNJ-HCl) | stability of rhGAA (heat required to denature) ([3]; pH 7.4, Myozyme plus 100 μM 1-DNJ-HCl vs Myozyme alone, hydrochloride) |
| --- | --- | --- | --- | --- | --- | --- | --- | --- | --- | --- | --- | --- | --- |
| Myozyme: alglucosidase alfa, human acid α-glucosidase produced by recombinant DNA technology in a Chinese hamster ovary cell line (Genzyme) | approximately 40% | ~70% | ~100% | up to 24 hours | declined at 7 days post injection | much more stable at lysosomal pH (5.2) than at ER pH (7.4) | – | – | – | – | – | – | – |
| OC[C@H]1NC[C@H](O)[C@@H](O)[C@@H]1O [1-DNJ-HCl, 1-deoxynorjirimycin hydrochloride] | – | – | – | – | – | – | best for stabilizing rhGAA and preventing enzyme inactivation | remained completely active | increased | dose-dependent increase in Myozyme uptake | significantly greater tissue glycogen reduction | can prevent GAA denaturation and loss of enzyme activity | required significantly more heat to denature; also recorded: significantly increased |
